Measured values published in patent US10711004B2 (Genentech, Inc., priority 2018, dated 2020).
Read-outs that look alike come from different tables or passages of the source.

Target: human TRPA1 channel (Homo sapiens (Human), UniProt O75762)
Experiment: hTRPA1 CHO Ca2+ FLIPR Tetra assay, block of cinnamaldehyde induced calcium influx
Type: cell-based
Conditions: CHO cells expressing TRPA1, Hill coefficient fixed to 1.5
Outline: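 Calcium-dye-loaded TRPA1-expressing CHO cells in HBSS/20 mM HEPES pH 7.4, 0.02% BSA were preincubated with compound for 10 or 90 min at room temperature. Calcium influx evoked by roughly an EC50 concentration of cinnamaldehyde was then read on FLIPR Tetra; IC50 came from curve fits with a fixed Hill coefficient.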

[1] = read-out: hTRPA1 IC50 (10 min), compounds incubated 10 minutes at room temperature before cinnamaldehyde agonist
[2] = read-out: hTRPA1 IC50 (90 min), compounds incubated 90 minutes at room temperature before cinnamaldehyde agonist
[3] = compounds incubated 10 minutes at room temperature before cinnamaldehyde agonist
[4] = compounds incubated 90 minutes at room temperature before cinnamaldehyde agonist

Chain of human TRPA1 channel (O75762 whole entry): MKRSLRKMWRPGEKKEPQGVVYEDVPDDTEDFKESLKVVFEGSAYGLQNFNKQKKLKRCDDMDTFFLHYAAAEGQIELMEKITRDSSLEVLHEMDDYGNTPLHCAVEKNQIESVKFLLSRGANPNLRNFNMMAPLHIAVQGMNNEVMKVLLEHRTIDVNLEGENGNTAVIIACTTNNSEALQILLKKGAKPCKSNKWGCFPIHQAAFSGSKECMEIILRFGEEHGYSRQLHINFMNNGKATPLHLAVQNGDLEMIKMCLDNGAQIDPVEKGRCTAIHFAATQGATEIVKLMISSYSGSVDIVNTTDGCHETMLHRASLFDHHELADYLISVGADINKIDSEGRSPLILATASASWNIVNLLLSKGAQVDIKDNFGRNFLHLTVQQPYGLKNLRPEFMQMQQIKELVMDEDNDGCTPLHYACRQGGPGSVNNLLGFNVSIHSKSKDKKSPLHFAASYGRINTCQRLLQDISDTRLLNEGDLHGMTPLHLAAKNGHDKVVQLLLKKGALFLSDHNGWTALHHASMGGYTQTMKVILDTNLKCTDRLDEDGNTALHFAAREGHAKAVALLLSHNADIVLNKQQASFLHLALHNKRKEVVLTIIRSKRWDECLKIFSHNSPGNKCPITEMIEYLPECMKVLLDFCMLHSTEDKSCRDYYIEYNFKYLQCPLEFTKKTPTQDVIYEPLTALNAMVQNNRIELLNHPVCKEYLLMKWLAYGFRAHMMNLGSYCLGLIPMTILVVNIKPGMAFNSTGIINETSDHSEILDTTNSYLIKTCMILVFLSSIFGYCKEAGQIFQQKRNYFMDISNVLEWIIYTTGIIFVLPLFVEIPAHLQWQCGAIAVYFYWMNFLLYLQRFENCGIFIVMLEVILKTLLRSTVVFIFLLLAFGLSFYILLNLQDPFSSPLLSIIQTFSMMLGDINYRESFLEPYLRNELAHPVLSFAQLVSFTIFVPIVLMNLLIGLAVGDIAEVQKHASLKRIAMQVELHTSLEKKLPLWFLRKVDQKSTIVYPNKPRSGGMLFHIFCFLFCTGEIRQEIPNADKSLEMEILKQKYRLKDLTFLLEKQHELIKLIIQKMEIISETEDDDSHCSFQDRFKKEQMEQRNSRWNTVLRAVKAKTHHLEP

| IC50 [1] | IC50 [2] | IC50 [3] | IC50 [4] | Structure (SMILES) |
| --- | --- | --- | --- | --- |
| 340 nM | – | – | – | Cn1cnc2ncn(Cc3nc([C@H]4[C@@H]5CN(c6cccc(-c7ccccc7)c6)C[C@@H]54)no3)c(=O)c21 [Example Compound 234, 1-((3-((1R,5S,6r)-3-([1,1′-biphenyl]-3-yl)-3-azabicyclo[3.1.0]hexan-6-yl)-1,2,4-oxadiazol-5-yl)methyl)-7-methyl-1,7-dihydro-6H-purin-6-one] |
| 65.1 nM | 52 nM | – | – | O=c1c2cccnc2ncn1Cc1nc([C@H]2[C@@H]3CN(c4cc(Cl)ccn4)C[C@@H]32)no1 [Example Compound 183, 3-((3-((1R,5S,6r)-3-(4-chloropyridin-2-yl)-3-azabicyclo[3.1.0]hexan-6-yl)-1,2,4-oxadiazol-5-yl)methyl)pyrido[2,3-d]pyrimidin-4(3H)-one] |
| 142 nM | – | – | – | Cn1cnc2ncn(Cc3nc([C@H]4C[C@H](c5ccc(OC(F)F)cc5)C4)no3)c(=O)c21 |
| 9.35 nM | 4.9 nM | – | – | Cn1cnc2ncn(Cc3nc([C@@H]4[C@H]5C=C(c6ccc(F)c(F)c6)C[C@H]54)no3)c(=O)c21 [Example Compound 94, 1-((3-((1R,5R,6S)-3-(3,4-difluorophenyl)bicyclo[3.1.0]hex-2-en-6-yl)-1,2,4-oxadiazol-5-yl)methyl)-7-methyl-1,7-dihydro-6H-purin-6-one] |
| 42.4 nM | – | – | – | Cn1cnc2ncn(Cc3nc([C@H]4[C@@H]5CN(c6ccc(OC(F)(F)F)cc6)C[C@@H]54)no3)c(=O)c21 [Example Compound 6, 7-methyl-1-[[3-[(1R,5S,6 r)-3-[4-(trifluoromethoxy)phenyl]-3-azabicyclo[3.1.0]hexan-6-yl]-1,2,4-oxadiazol-5-yl]methyl]purin-6-one] |
| 71.6 nM | 19 nM | – | – | Cc1cccc(N2C[C@@H]3[C@H](C2)[C@H]3c2noc(Cn3cnc4ncn(C)c4c3=O)n2)c1 [Example Compound 224, 7-methyl-1-((3-((1R,5S,6r)-3-(m-tolyl)-3-azabicyclo[3.1.0]hexan-6-yl)-1,2,4-oxadiazol-5-yl)methyl)-1,7-dihydro-6H-purin-6-one] |
| 117 nM | 64 nM | – | – | Cn1cnc2ncn(Cc3nc([C@H]4C[C@H](C(=O)c5cccc(Cl)c5)C4)no3)c(=O)c21 [Example Compound 101, 1-((3-((1r,3r)-3-(3-chlorobenzoyl)cyclobutyl)-1,2,4-oxadiazol-5-yl)methyl)-7-methyl-1,7-dihydro-6H-purin-6-one] |
| 46.1 nM | 40 nM | – | – | Cn1cnc2ncn(Cc3nc([C@@H]4[C@H]5C=C(c6cccc(-c7cnco7)c6)C[C@H]54)no3)c(=O)c21 [Example Compound 280, 7-methyl-1-[[3-[(1R,5R,6S)-3-(3-oxazol-5-ylphenyl)-6-bicyclo[3.1.0]hex-2-enyl]-1,2,4-oxadiazol-5-yl]methyl]purin-6-one] |
| 57.9 nM | 23 nM | – | – | Cn1cnc2ncn(Cc3nc([C@H]4[C@@H]5CN(c6ccc(C#N)cc6F)C[C@@H]54)no3)c(=O)c21 [Example Compound 247, 3-fluoro-4-[(1S,5R)-6-[5-[(7-methyl-6-oxo-purin-1-yl)methyl]-1,2,4-oxadiazol-3-yl]-3-azabicyclo[3.1.0]hexan-3-yl]benzonitrile] |
| 158 nM | – | – | – | COc1cccc(N2C[C@@H]3[C@H](C2)[C@H]3c2noc(Cn3cnc4ncn(C)c4c3=O)n2)c1 [Example Compound 13, 7-methyl-1-[[3-[(1R,5S,6 r)-3-(3-methoxyphenyl)-3-azabicyclo[3.1.0]hexan-6-yl]-1,2,4-oxadiazol-5-yl]methyl]purin-6-one] |
| 15.1 nM | – | – | – | Cc1ccnc2ncn(Cc3nc([C@H]4C[C@H](c5ccc(F)cc5)C4)no3)c(=O)c12 [Example Compound 164, 3-((3-((1r,3r)-3-(4-fluorophenyl)cyclobutyl)-1,2,4-oxadiazol-5-yl)methyl)-5-methylpyrido[2,3-d]pyrimidin-4(3H)-one] |
| – | – | 16.8 nM | 11 nM | Cn1cnc2ncn(Cc3nc([C@@H]4[C@H]5C=C(c6ccc(-c7cnco7)cc6)C[C@H]54)no3)c(=O)c21 [Example Compound 277, 7-methyl-1-[[3-[(1R,5R,6S)-3-(4-oxazol-5-ylphenyl)-6-bicyclo[3.1.0]hex-2-enyl]-1,2,4-oxadiazol-5-yl]methyl]purin-6-one] |
| 51.3 nM | – | – | – | Cc1ccnc2ncn(Cc3nc([C@H]4C[C@H](c5ccc(OC(F)F)cc5)C4)no3)c(=O)c12 |
| 54.6 nM | 39 nM | – | – | N#Cc1ccc2c(=O)n(Cc3nc([C@@H]4[C@H]5C=C(c6ccccc6)C[C@H]54)no3)cnc2n1 [Example Compound 266, 4-oxo-3-[[3-[(1R,5R,6S)-3-phenyl-6-bicyclo[3.1.0]hex-2-enyl]-1,2,4-oxadiazol-5-yl]methyl]pyrido[2,3-d]pyrimidine-7-carbonitrile] |
| 134 nM | 67 nM | – | – | Cn1cc(-c2ccc(N3C[C@@H]4[C@H](C3)[C@H]4c3noc(Cn4cnc5ncn(C)c5c4=O)n3)cc2)cn1 [Example Compound 179, 7-methyl-1-((3-((1R,5S,6r)-3-(4-(1-methyl-1H-pyrazol-4-yl)phenyl)-3-azabicyclo[3.1.0]hexan-6-yl)-1,2,4-oxadiazol-5-yl)methyl)-1,7-dihydro-6H-purin-6-one] |
| 52.7 nM | – | – | – | Cn1cnc2ncn(Cc3nc([C@H]4[C@@H]5CN(c6cccc(C(F)(F)F)c6)C[C@@H]54)no3)c(=O)c21 [Example Compound 30, 7-methyl-1-[[3-[(1R,5S,6r)-3-[3-(trifluoromethyl)phenyl]-3-azabicyclo[3.1.0]hexan-6-yl]-1,2,4-oxadiazol-5-yl]methyl]purin-6-one] |
| 169 nM | – | – | – | Cn1cnc2ncn(Cc3nc([C@H]4[C@@H]5CN(c6cnc7ccccc7c6)C[C@@H]54)no3)c(=O)c21 |
| 29.7 nM | 6.7 nM | – | – | Cn1cnc2ncn(Cc3nc([C@H]4[C@@H]5CN(c6c(F)ccc(Cl)c6F)C[C@@H]54)no3)c(=O)c21 [Example Compound 222, 1-((3-((1R,5S,6r)-3-(3-chloro-2,6-difluorophenyl)-3-azabicyclo[3.1.0]hexan-6-yl)-1,2,4-oxadiazol-5-yl)methyl)-7-methyl-1,7-dihydro-6H-purin-6-one] |
| 66.9 nM | – | – | – | O=c1c2cccnc2ncn1Cc1nc([C@H]2C[C@](F)(c3cccc(F)c3)C2)no1 [Example Compound 197, 3-((3-((1s,3s)-3-fluoro-3-(3-fluorophenyl)cyclobutyl)-1,2,4-oxadiazol-5-yl)methyl)pyrido[2,3-d]pyrimidin-4(3H)-one] |
| 77.3 nM | – | – | – | Cn1cnc2ncn(Cc3nc([C@H]4[C@@H]5CN(c6ccccc6Cl)C[C@@H]54)no3)c(=O)c21 |
| 21.7 nM | 10 nM | – | – | Cn1cnc2ncn(Cc3nc([C@H]4[C@@H]5CN(c6ccc(Cl)c(F)c6)C[C@@H]54)no3)c(=O)c21 [Example Compound 229, 1-((3-((1R,5S,6r)-3-(4-chloro-3-fluorophenyl)-3-azabicyclo[3.1.0]hexan-6-yl)-1,2,4-oxadiazol-5-yl)methyl)-7-methyl-1,7-dihydro-6H-purin-6-one] |
| 118 nM | 78 nM | – | – | Cn1cnc2ncn(Cc3nc([C@@H]4[C@H]5C=C(c6ccccn6)C[C@H]54)no3)c(=O)c21 [Example Compound 128, 7-methyl-1-((3-((1R,5R,6S)-3-(pyridin-2-yl)bicyclo[3.1.0]hex-2-en-6-yl)-1,2,4-oxadiazol-5-yl)methyl)-1,7-dihydro-6H-purin-6-one] |
| 49 nM | – | – | – | O=c1c2cccnc2ncn1Cc1nc([C@H]2C[C@H](c3cccc(Cl)c3)C2)no1 |
| 25.1 nM | 16 nM | – | – | Cn1cnc2nnn(Cc3nc([C@H]4[C@@H]5C=C(c6ccccc6)C[C@@H]54)no3)c(=O)c21 [Example Compound 259, 5-methyl-3-[[3-[(1S,5S,6R)-3-phenyl-6-bicyclo[3.1.0]hex-2-enyl]-1,2,4-oxadiazol-5-yl]methyl]imidazo[4,5-d]triazin-4-one] |
| 14.9 nM | 2 nM | – | – | Cn1cnc2ncn(Cc3nc([C@H]4[C@@H]5C=C(c6cc(F)c(F)c(F)c6)C[C@@H]54)no3)c(=O)c21 [Example Compound 251, 7-methyl-1-[[3-[(1S,5S,6R)-3-(3,4,5-trifluorophendyl)-6-bicyclo[3.1.0]hex-2-enyl]-1,2,4-oxadiazol-5-yl]methyl]purin-6-one] |
| 6.17 nM | 5.1 nM | 15.4 nM | 8.5 nM | O=c1c2cccnc2cnn1Cc1nc([C@H]2[C@@H]3CN(c4ccccc4)C[C@@H]32)no1 [Example Compound 213, 6-((3-((1R,5S,6r)-3-phenyl-3-azabicyclo[3.1.0]hexan-6-yl)-1,2,4-oxadiazol-5-yl)methyl)pyrido[2,3-d]pyridazin-5(6H)-one] |
| 157 nM | 100 nM | – | – | Cn1cnc2ncn(Cc3nc([C@H]4[C@@H]5CN(c6ccccc6C#N)C[C@@H]54)no3)c(=O)c21 [Example Compound 98, 2-((1R,5S,6r)-6-(5-((7-methyl-6-oxo-6,7-dihydro-1H-purin-1-yl)methyl)-1,2,4-oxadiazol-3-yl)-3-azabicyclo[3.1.0]hexan-3-yl)benzonitrile] |
| 142 nM | 130 nM | – | – | Cn1cnc2ncn(Cc3nc([C@H]4[C@@H]5C=C(c6ccc(Cl)cn6)C[C@@H]54)no3)c(=O)c21 [Example Compound 122, 1-((3-((1S,5S,6R)-3-(5-chloropyridin-2-yl)bicyclo[3.1.0]hex-2-en-6-yl)-1,2,4-oxadiazol-5-yl)methyl)-7-methyl-1,7-dihydro-6H-purin-6-one] |

| Structure (SMILES) | IC50 [1] | IC50 [2] | IC50 [3] | IC50 [4] |
| --- | --- | --- | --- | --- |
| Cn1cnc2ncn(Cc3nc([C@H]4C[C@H](Oc5ccc(Cl)cc5)C4)no3)c(=O)c21 [Example Compound 218, 1-((3-((1r,3r)-3-(4-chlorophenoxy)cyclobutyl)-1,2,4-oxadiazol-5-yl)methyl)-7-methyl-1,7-dihydro-6H-purin-6-one] | 24.9 nM | 13 nM | – | – |
